These results are taken from patent publication US8536343B2, “Arylamidine derivative, salt thereof and antifungal agent containing those” (Toyama Chemical Co., Ltd., priority 2005, dated 2013).

Data set [1] concerns the target T1, human CYP2C19 (Homo sapiens, UniProt P33261).
T1 construct: host or cells: insect cells (microsomes)
The data set can be described thus: Inhibitory effect on CYP2C19. It counts as in vitro ADME. The settings on record: microsome from insect cells expressing human CYP2C19, dibenzylfluorescein, 37° C. 30 min, 72 to 0.0329 μmol/L. The protocol:
(§1) Inhibitory effects of the compound of Example 3 and Comparative Compound 1 on human hepatic drug-metabolizing enzyme CYP2C19 were compared. A microsome prepared from insect cells expressing human CYP2C19 was used. Dibenzylfluorescein was used as a substrate. The reaction was conducted in a phosphate buffer solution (100 mmol/L, pH 7.4) including final concentrations of 15 nmol/L for the enzyme, 1.0 μmol/L for the substrate, 1.55 mmol/L for nicotinamide adenine dinucleotide phosphate oxidized form (NADP+), 3.3 mmol/L for glucose-6-phosphate, 3.3 mmol/L for magnesium chloride and 0.4 Units/mL for glucose-6-phosphate dehydrogenase (G6PDH). The concentrations of the respective compounds in the reaction solution were prepared in a 3-fold dilution series with a final concentration range of 72 to 0.0329 μmol/L. The reaction solutions were incubated at 37° C. for 30 min. Then the reaction was terminated by a 2 mol/L sodium hydroxide aqueous solution, and the reactant was further incubated at 37° C. for 2 hours. The enzyme activity was determined by measuring fluorescence with wavelength of 535 nm using excitation wavelength of 485 nm. The inhibitory effect was represented as IC50. Tranylcypromine was used as a positive control.

The test system of data set [2] is Aspergillus fumigatus IFM46895. The data set can be described thus: Murine Aspergillus infection model (oral administration). It counts as in vivo. The settings on record: cyclophosphamide-compromised male mice; 10 mg/kg orally, 7 times; observed 21 days after infection. The protocol:
As Test Compounds, the compound of Example 3 and Comparative Compound 1 were used.
(§2) Spores of Aspergillus fumigatus IFM46895 were cultured on a potato dextrose agar medium at 30° C. for a week. The recovered spores were suspended in a sterile physiological saline solution containing 0.05% Tween 80, which was then diluted to prepare an inoculum solution.
(§3) Male mice (4 week-old, 5 mice/group) were administered intraperitoneally with 200 mg/kg of cyclophosphamide 4 days before infection and 100 mg/kg on the following day after the infection to obtain transient compromised condition. Each 0.2 mL of the inoculum solution was inoculated into the tail vein of each mouse to induce infection (about 1×10^5 CFU/mouse). The Test Compounds were dissolved in a small amount of 0.1 mol/L hydrochloric acid, and the solution was diluted with a sterile distilled water to obtain a 1 mg/mL solution. The solution was administered orally at the dose of 10 mL/kg body weight of mouse (10 mg/kg body weight). The administrations were conducted once 2 hours after the infection and once daily for the following 6 days, totaling 7 times. To a group receiving no Test Compounds, an equal amount of a sterile physiological saline solution was administered. Viability of the mice was observed and recorded for 21 days after infection.

A short description of data set [3]: Acute toxicity study in mice (intravenous administration). The settings on record: male mice, 50 mg/kg single intravenous dose. The data set is classed as in vivo. The protocol:
The compound of Example 3 was dissolved in a small amount of 0.1 mol/L hydrochloric acid, and the solution was diluted with a sterile physiological saline solution to obtain a 5 mg/mL solution. The Test Compound solution was administered intravenously to male mice (4 week-old, 2 mice/group) at 10 mL/kg (50 mg/kg body weight) and the mice were observed until day 2 after administration.

For data set [4], the system named is Aspergillus fumigatus IFM46895. The data set can be described thus: Murine Aspergillus infection model (subcutaneous administration). The data set is classed as in vivo. The settings on record: cyclophosphamide-compromised male mice; 0.3 mg/kg subcutaneously, 7 times; observed 21 days after infection. The protocol:
As a Test Compound, the compound of Example 3 was used.
as §2
as §3, with “Test Compound was” for “Test Compounds were”, “sterile physiological saline solution” for “sterile distilled water”, “a 0.03” for “a 1”, “administered subcutaneously” for “administered orally”, “mouse (0.3” for “mouse (10”, “Test Compound,” for “Test Compounds,”

Data set [5] has as its target T2, human CYP3A4 (Homo sapiens, UniProt P08684).
T2 construct: host or cells: insect cells (microsomes)
The data set can be described thus: Inhibitory effect on CYP3A4. It counts as in vitro ADME. The settings on record: microsome from insect cells expressing human CYP3A4, dibenzylfluorescein, 37° C. 15 min, 72 to 0.0329 μmol/L. The protocol: as §1, with “CYP3A4” for “CYP2C19”, “2.5” for “15”, “15” for “30”, “solution” for “reactant”, “expressed” for “represented”, “Clotrimazole” for “Tranylcypromine”

Data set [6] in a line: Acute toxicity study in mice (oral administration). The data set is classed as in vivo. The settings on record: male mice, 1000 mg/kg single oral dose. The protocol: A 100 mg/mL suspension of the compound of Example 3 was prepared with 0.1 mol/L hydrochloric acid. The Test Compound solution was orally administered to male mice (6 week-old, 2 mice/group) at 10 mL/kg (1000 mg/kg body weight) and the mice were observed until day 2 after administration.

T2 sequence (P08684 whole entry): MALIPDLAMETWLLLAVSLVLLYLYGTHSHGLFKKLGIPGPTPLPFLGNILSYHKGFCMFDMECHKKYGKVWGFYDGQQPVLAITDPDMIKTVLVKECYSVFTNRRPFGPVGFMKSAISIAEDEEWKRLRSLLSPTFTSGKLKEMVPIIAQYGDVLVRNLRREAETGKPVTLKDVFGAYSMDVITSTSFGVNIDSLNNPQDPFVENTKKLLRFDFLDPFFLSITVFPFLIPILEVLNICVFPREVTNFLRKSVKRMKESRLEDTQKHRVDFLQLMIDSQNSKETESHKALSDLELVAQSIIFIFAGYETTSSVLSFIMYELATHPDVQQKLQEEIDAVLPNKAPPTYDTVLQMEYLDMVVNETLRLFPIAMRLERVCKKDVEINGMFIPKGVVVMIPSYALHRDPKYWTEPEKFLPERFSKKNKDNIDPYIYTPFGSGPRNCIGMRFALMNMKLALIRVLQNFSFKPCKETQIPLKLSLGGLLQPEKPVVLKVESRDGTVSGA
T1 sequence (P33261 whole entry): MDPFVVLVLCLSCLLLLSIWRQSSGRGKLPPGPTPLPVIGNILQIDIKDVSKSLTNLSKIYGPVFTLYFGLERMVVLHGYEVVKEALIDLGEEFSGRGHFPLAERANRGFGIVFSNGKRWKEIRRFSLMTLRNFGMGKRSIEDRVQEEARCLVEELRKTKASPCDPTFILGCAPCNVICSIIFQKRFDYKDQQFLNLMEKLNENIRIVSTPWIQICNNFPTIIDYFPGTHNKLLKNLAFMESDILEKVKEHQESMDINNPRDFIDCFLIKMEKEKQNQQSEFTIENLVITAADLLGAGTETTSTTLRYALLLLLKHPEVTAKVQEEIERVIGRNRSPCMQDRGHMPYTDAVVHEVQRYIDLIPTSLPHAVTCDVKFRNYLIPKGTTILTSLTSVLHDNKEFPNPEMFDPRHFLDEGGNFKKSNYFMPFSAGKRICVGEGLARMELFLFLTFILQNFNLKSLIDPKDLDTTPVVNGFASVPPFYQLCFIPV

Take `CCCCOC(=O)N=C(N)c1ccc(OCCCC2CCN(CCCOc3ccc(C(N)=NC(=O)OCCCC)cc3)CC2)cc1` [Example 3, 4-{3-[4-(3-{4-[amino(butoxycarbonylimino)methyl]phenoxy}propyl)-1-piperidinyl]propoxy}-N′-(butoxycarbonyl)benzamidine]: the concentration for half-maximal inhibition (IC50) in data set [1] was above 72 µM; in data set [5], 45.4 µM. Moreover, the mice survived stood at 80% in data set [2] and 60% in data set [4]. Also, the “survival until day 2 after administration” value in data set [3] and in data set [6] was “all mice survived” each time.
